Measurements from US20050238727A1, “Coadministration of radiation, efaproxiral sodium, and supplemental oxygen for the treatment of cancer” (priority 2004, published 2005).

Assays:
Assay type in all cases: in vivo, human
[1] = Plasma and red blood cell (RBC) drug concentration during efaproxiral sodium administration
Experimental: Plasma and red blood cell (RBC) drug concentration were assayed on 2 days during the course of efaproxiral sodium administration: WBRT day 1 (end-infusion) and on 1 single day between WBRT days 6 and 10 (pre-infusion and end-infusion assays). Regression analysis was used to explore the relationship between trough and peak concentrations and continuous clinical covariates (eg, age, serum albumin, hematocrit, serum creatinine, etc). […] A dose of efaproxiral sodium was considered predicatably therapeutic if it achieved a sufficient, RBC concentration (>483 μg/ml), and corresponded to a predicted p50 shift of 10 mmHg.

[2] = test system: brain metastases; assay: Survival of patients with brain metastases given efaproxiral sodium + WBRT + supplemental oxygen (controlled study RT-009)
Experimental: Patients with brain metastases were administered efaproxiral sodium in a total dose of 0-100 mg/kg per day based on the dosing guidelines detailed above. In general, efaproxiral sodium is administered by intravenous infusion through a central venous access device over 30 minutes at a dose of 75 or 100 mg/kg daily with concurrent supplemental oxygen. Oxygen must be administered at 4 L/min via nasal cannula or facemask beginning 5 minutes prior to initiation of infusion, during infusion and WBRT, and for at least 15 minutes after completion of daily WBRT. Efaproxiral sodium is administered every day of a fractionated course of WBRT. Except when contraindicated, WBRT must be administered within 30 minutes of the end of the efaproxiral sodium infusion. The patients were given the drug in one dose. Efaproxiral sodium was administered via central venous access with flow rate controlled by volumetric pump over a 30-45 minute interval with end-infusion no longer than 30 minutes prior to each radiation dose of a 10-day course of WBRT. Efaproxiral sodium was formulated as a sterile solution for injection and was supplied in single-use glass bottles containing 10 g efaproxiral sodium in 500 mL of 0.225% NaCl at a concentration of 20 mg/mL. Efaproxiral sodium was administered during the 10-day course of WBRT, for a maximum of 10 doses. A control group received radiation and supplemental oxygen only. Supplemental oxygen is administered at about 4 L/min via nasal cannula beginning about 5 minutes prior to initiation of infusion, during infusion and WBRT, and for at least about 15 minutes after completion of daily WBRT. If the desired SpO2 of greater than or equal to 90% while breathing room air is not achieved, supplemental oxygen is to be continued and increased to a flow of 6-8 L/min, if necessary, until the SpO2 while breathing room air is stabilized at greater than or equal to 90%. Plasma and red blood cell (RBC) drug concentration were assayed on 2 days during the course of efaproxiral sodium administration: WBRT day 1 (end-infusion) and on 1 single day between WBRT days 6 and 10 (pre-infusion and end-infusion assays). Regression analysis was used to explore the relationship between trough and peak concentrations and continuous clinical covariates (eg, age, serum albumin, hematocrit, serum creatinine, etc). […] A dose of efaproxiral sodium was considered predicatably therapeutic if it achieved a sufficient, RBC concentration (>483 μg/ml), and corresponded to a predicted p50 shift of 10 mmHg. One measurement of efficacy is the survival in the total patient population. For eligible patients, the observed mean survival time for the control group was 4.37 months as compared to 5.39 months for the efaproxiral sodium treated group.

[3] = Treatment-emergent adverse events in the controlled study
Experimental: Patients with brain metastases were administered efaproxiral sodium in a total dose of 0-100 mg/kg per day based on the dosing guidelines detailed above. In general, efaproxiral sodium is administered by intravenous infusion through a central venous access device over 30 minutes at a dose of 75 or 100 mg/kg daily with concurrent supplemental oxygen. Oxygen must be administered at 4 L/min via nasal cannula or facemask beginning 5 minutes prior to initiation of infusion, during infusion and WBRT, and for at least 15 minutes after completion of daily WBRT. Efaproxiral sodium is administered every day of a fractionated course of WBRT. Except when contraindicated, WBRT must be administered within 30 minutes of the end of the efaproxiral sodium infusion.
The patients were given the drug in one dose. Efaproxiral sodium was administered via central venous access with flow rate controlled by volumetric pump over a 30-45 minute interval with end-infusion no longer than 30 minutes prior to each radiation dose of a 10-day course of WBRT. Efaproxiral sodium was formulated as a sterile solution for injection and was supplied in single-use glass bottles containing 10 g efaproxiral sodium in 500 mL of 0.225% NaCl at a concentration of 20 mg/mL. Efaproxiral sodium was administered during the 10-day course of WBRT, for a maximum of 10 doses. A control group received radiation and supplemental oxygen only.
The majority of treatment-emergent adverse events were Grade 1 or 2 in severity, resolved spontaneously or within the duration of the study, and responded well to concomitant treatment with antiemetics for nausea/vomiting, nonsteroidal anti-inflammatory drugs for headache, supplemental oxygen for hypoxemia. […] Muscle weakness and dyspnea (reported in 3% of patients ) were the most commonly reported Grade 3 adverse events in Control patients and both events were reported as a Grade 4 event in 1 patient each. The most commonly reported Grade 4 adverse event in both treatment and control groups was disease progression (reported in 6% of both groups).

[4] = test system: brain metastases; assay: Radiographic response of brain metastases (contrast enhanced MRI or CT, blinded central review)
From the text: Radiographic progression is defined by radiographic criteria only, based on a blinded central review. Determination of radiographic tumor progression in the brain was based on contrast enhanced MRI or CT scans taken at screening and compared to follow-up scans taken 1 month after the end of WBRT, 3 months after the end of WBRT, and every 3 months thereafter until death. Maximum bi-dimensional measurements (x=transverse, y=antero-posterior) were used to compute the bi-dimensional product and for determination of response and radiographic progression. Time to radiographic tumor progression in the brain was reported by means of Kaplan-Meier estimates. Gray's test (Gray R. A class of K-sample tests for comparing the cumulative incidence of a competing risk. Annals of Statistics […];16:1141-1154) was used to compare cumulative incidence between treatment and control groups. Potential competing risks for radiographic progression in the brain included death without progression and loss to follow-up. The date of tumor progression is defined as the date of radiographic documentation that any treated lesion in the brain is enlarged by more than 25% in the bi-dimensional product. The reference to “any treated lesion” mans that the lesion was present prior to RT.

[5] = Quality of life: Spitzer Questionnaire (SQ); settings: all randomized patients, N = 271
Experimental: (§1) Quality of life was determined by means of the Spitzer Questionnaire (SQ) and Kamofsky Performance Status (KPS) assessment. The tests were performed at baseline, at WBRT day 10, and at all routine follow-up visits. A sustained drop in the KPS score to less than 60 was defined as a significant drop. The 5 questions comprising the Spitzer Questionnaire were weighted evenly. For each evaluation with at least 3 out of 5 questions answered, an average score was computed for each patient. Questionnaires with fewer than 3 questions answered were treated as missing data. The protocol specified a sustained drop in the Spitzer Questionnaire score of 2 points constituted a significant drop.

[6] = Resaturation time / supplemental oxygen requirement after efaproxiral sodium plus WBRT; settings: majority of doses; patients with brain metastases from breast cancer
Experimental: Depending upon an individual patient's resaturation time (time required to recover to a stable≧90% SpO2 on room air) following efaproxiral sodium plus WBRT, supplemental oxygen use may be required for as little as 30 minutes to more than 4 hours. […] During this period of decreased oxygen saturation, patients require continuous SpO2 monitoring. If the desired SpO2 of≧90% while breathing room air is not achieved, supplemental oxygen is to be continued and increased to a flow of 6-8 L/min, if necessary, until the SpO2 while breathing room air is stabilized at≧90%.

[7] = Quality of life: Karnofsky Performance Status (KPS); settings: for patients with stable or improving KPS scores: all randomized patients, N = 271
Experimental: as §1

## Cc1cc(C)cc(NC(=O)Cc2ccc(OC(C)(C)C(=O)O)cc2)c1 [efaproxiral sodium, 2-[4-(((3,5-dimethylanilino)carbonyl)methyl)phenoxy]-2-methylpropionic acid]
[1]; WBRT week 2 preinfusion concentrations in RBCs
  drug accumulation: No clinically relevant drug accumulation occurred
[1]; at RBC concentration >483 μg/ml
  predicted p50 shift: 10 mmHg
[1]; patients dosed at 75 or 100 mg/kg
  change of concentration in RBCs with dose: proportional increase
[2]; All patients, <7 efaproxiral sodium doses
  MST (median survival time): 2.96 (53)
[2]; All patients, ≧7 efaproxiral sodium doses, <7 successful (RBC >483 μg/ml)
  MST (median survival time): 4.93 (118)
[2]; All patients, ≧7 efaproxiral sodium doses, ≧7 successful (RBC >483 μg/ml), p 0.001 vs Control
  MST (median survival time): 6.90 (100) 0.001
[2]; Breast patients, <7 efaproxiral sodium doses
  MST (median survival time): 3.52 (13)
[2]; Breast patients, ≧7 efaproxiral sodium doses, <7 successful
  MST (median survival time): 7.33 (22)
[2]; Breast patients, ≧7 efaproxiral sodium doses, ≧7 successful, p 0.0002 vs Control
  MST (median survival time): 25.72 (25) 0.0002
[2]; NSCLC patients, <7 efaproxiral sodium doses
  MST (median survival time): 2.71 (30)
[2]; NSCLC patients, ≧7 efaproxiral sodium doses, <7 successful
  MST (median survival time): 4.73 (65)
[2]; NSCLC patients, ≧7 efaproxiral sodium doses, ≧7 successful, p 0.0011 vs Control
  MST (median survival time): 6.83 (53) 0.0011
[2]; eligible patients, control group 4.37 months
  observed mean survival time: 5.39 months
[2]; patients with breast as site of primary, p=0.0061
  HR, survival distribution function, treatment versus control: 0.552
[3]; controlled study
  severity of the majority of treatment-emergent adverse events: Grade 1 or 2
[3]; efaproxiral sodium-treated patients
  Grade 4 hypoxemia: no Grade 4 hypoxemia was reported
[3]; efaproxiral sodium-treated patients, most commonly reported Grade 3 adverse event
  Grade 3 hypoxemia, patients reporting: 11%
[3]; most commonly reported Grade 4 adverse event, same in control group
  Grade 4 disease progression, patients reporting: 6%
[4]; all randomized patients, 95% CI −0.4%-16.3%, p=0.0609
  estimated increase in radiographic response rate compared to Control: 7.9%
[4]; breast primary patients, p=0.0209
  treatment effect for predicting response (logistic multiple regression): statistically significant
[5]; 1 month
  patients with stable or improving SQ scores: 115 (42) n (%)
[5]; 3 months
  patients with stable or improving SQ scores: 62 (23) n (%)
[5]; 6 months
  patients with stable or improving SQ scores: 43 (16) n (%)
[5]; 12 months
  patients with stable or improving SQ scores: 24 (9) n (%)
[6]
  supplemental oxygen required after completion of WBRT: one
[7]; 1 month
  patients with stable or improving KPS scores: 119 (44) n (%)
[7]; 3 months
  patients with stable or improving KPS scores: 64 (24) n (%)
[7]; 6 months
  patients with stable or improving KPS scores: 49 (18) n (%)
[7]; 12 months
  patients with stable or improving KPS scores: 19 (7) n (%)
[7]; breast primary patients, 6 months and 1 year (p=0.0046 and p=0.0070)
  distribution of KPS score categories between treatment groups: statistically significant difference
